Laboratory results as given in patent publication US20240408085A1, “COMPOUND FOR DEGRADATION OF BCL-2 FAMILY PROTEINS AND MEDICAL APPLICATION THEREOF” (XIZANG HAISCO PHARMACEUTICAL CO., LTD., priority 2021, published 2024).

What was measured:
BCL-xL proteins = target: T1, BCL-xL proteins (Homo sapiens, UniProt Q07817); experiment: BCL-xL degradation activity in MOLT-4 cells (western blot, 16 h); format: cell-based
T1 construct: degradation effect on the BCL-xL proteins in MOLT-4 cells; host or cells: MOLT-4
Method: MOLT-4 cells are acute lymphoblastic leukemia cell lines in humans. The cells were purchased from ATCC. Culture conditions: RPMI-1640+10% FBS+1% penicillin-streptomycin solution. The cells were cultured in a 37° C., 5% CO2 incubator. The cells were plated in a 12-well plate, with 2×10^5 cells/well. After plating, compounds at different concentrations were added and cultured in a 37° C., 5% CO2 incubator for 16 h. After the completion of culture, the cells were harvested and RIPA lysis buffer (beyotime, Cat. P0013B) was added. The cells were lysed on ice for 15 minutes and centrifuged at 12000 rpm at 4° C. for 10 minutes. The supernatant protein samples were collected and the protein was quantified by using the BCA kit (Beyotime, Cat. P0009). Then the protein was diluted to 0.8 mg/mL. The expressions of BCL-xL (CST, Cat. 2764S), BCL-2 (CST, Cat. 15071S) and the internal reference β-actin (CST, Cat. 3700S) were detected using a fully automated western blot quantitative analyzer (Proteinsimple). The expression level of BCL-xL or BCL-2 relative to the internal reference was calculated by using Compass software, and the DC50 value was calculated by using GraphPad Prism 8.0 software according to formula (1), wherein the Proteinadministration denoted the relative expression level of BCL-xL or BCL-2 in administration groups at different doses, and the Proteinvehicle denoted the relative expression level of BCL-xL or BCL-2 in the vehicle control group.
Protein %=Proteinadministration/Proteinvehicle×100% formula (1)

MOLT-4 xenograft tumors = experiment: Growth inhibition experiment in MOLT-4 xenograft tumor models in mice; format: in vivo; conditions: two-way ANOVA and then Dunnett's test, FIG. 1
Method: MOLT-4 cells are acute lymphoblastic leukemia cell lines in humans. The cells were purchased from ATCC and cultured in RPMI-1640+10% FBS+1% o penicillin-streptomycin solution in a 37° C., 5% CO2 incubator. When the cells were in the exponential growth phase, the cells were harvested and counted. An equal volume of matrigel was added. Female SCID Beige mice (4-6 weeks old, 14-16 g, Beijing Vital River Laboratory Animal Technology Co., Ltd.) were inoculated subcutaneously in the right flank with the cells (200 μL, containing 1×10^7 MOLT-4 cells and 50% matrigel). When the tumor volume reached 150-200 mm^3, the mice were randomly grouped for administration according to the tumor volume and body weight of the mice. Three administration dosages were provided: 5 mpk, 15 mpk and 50 mpk. The compounds were injected intraperitoneally (ip) weekly (qw). The mice in all the experimental groups (10 mice in each group) were continuously administered for 4 weeks.
After inoculation, the body weights of the mice were measured three times a week and the long (a) and short (b) diameters of the tumors were measured. The tumor volume was calculated according to the formula: V=ab^2/2. At day 28 after the administration, the experiment was terminated.

[1] = Pharmacokinetic test in monkeys (intravenous); format: in vivo; conditions: male, cynomolgus monkey, i.v. 2 mg/kg, plasma
Method: Experimental animals: male cynomolgus monkeys, 3-5 kg, 3-6 years old, 2 monkeys/compound. Purchased from Suzhou Xishan Biotechnology Inc.
Experimental method: on the day of the test, 2 monkeys were randomly grouped according to their body weights. The animals were fasted with water available for 14 to 18 h one day before the administration of a test compound, and were fed 4 hours after the administration.
Before and after the administration, 1.0 mL of blood samples were drawn from the limb veins and placed in an EDTAK2 centrifuge tube. Centrifugation was carried out at 5000 rpm at 4° C. for 10 min, and the plasma was collected. Blood collection time points for the intravenous group were: 0, 5 min, 15 min, 30 min, 1 h, 2 h, 4 h, 6 h, 8 h, 10 h, 12 h, 24 h, and 48 h. Before analysis and detection, all samples were stored at −80° C., and a quantitative analysis of samples was performed using LC-MS/MS.

platelet (PLT) = experiment: Effect on platelet (PLT) after single intravenous injection; format: in vivo, SD rats; design: key to Effect on PLT (↓ decrease): — represents that no significant change was observed; conditions: for platelet toxicity relative to the control compound: rats
Method: Experimental animal: 78 SD rats, with an equal number of males and females, male (♂): 290-380 g, female (♀): 220-290 g, 8-10 weeks old, purchased from Zhejiang Vital River Laboratory Animal Technology Co., Ltd.
Experimental protocol: a clear solution was formulated using a vehicle ([…]). The animals were dosed via tail vein a single time (administration volume: 20 mL/kg; bolus injection period: about 4 minutes; recovery period: 7 days).

T1 sequence (Q07817 whole entry): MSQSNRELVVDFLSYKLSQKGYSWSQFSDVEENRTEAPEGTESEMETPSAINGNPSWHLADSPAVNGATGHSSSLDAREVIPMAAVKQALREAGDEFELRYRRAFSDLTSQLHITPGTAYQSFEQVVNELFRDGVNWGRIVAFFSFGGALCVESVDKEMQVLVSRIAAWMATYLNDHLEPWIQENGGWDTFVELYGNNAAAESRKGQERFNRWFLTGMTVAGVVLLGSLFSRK

Cc1ncsc1-c1ccc([C@H](C)NC(=O)[C@@H]2C[C@@H](O)CN2C(=O)[C@@H](NC(=O)CCCCCC(=O)N2CCN(CC[C@H](CSc3ccccc3)Nc3ccc(S(=O)(=O)NC(=O)c4ccc(N5CCN(CC6=C(c7ccc(Cl)cc7)CCCCC6)CC5)cc4)cc3S(=O)(=O)C(F)(F)F)CC2)C(C)(C)C)cc1 [Compound 6, (2S,4R)-1-((S)-2-(7-(4-((R)-3-((4-(N-(4-(4-((2-(4-chlorophenyl)cyclohept-1-en-1-yl)methyl)piperazin-1-yl)benzoyl)sulfamoyl)-2-((trifluoromethyl)sulfonyl)phenyl)amino)-4-(phenylthio)butyl)piperazin-1-yl)-7-oxoheptanamido)-3,3-dimethylbutanoyl)-4-hydroxy-N—((S)-1-(4-(4-methylthiazol-5-yl)phenyl)ethyl)pyrrolidine-2-carboxamide]
DC50 (BCL-xL proteins): 8.4 nM | growth inhibition on MOLT-4 xenograft tumor models, P versus the vehicle control group (MOLT-4 xenograft tumors): < 0.0001 | AUC(0-t) [1]: 54600 ± 5910 ng·h/mL | half-life [1]: 9.83 ± 2.2 h | Effect on PLT (↓ decrease) (platelet (PLT); SD rats ♀, 6 mg/kg single i.v., 4 h): — | Effect on PLT (↓ decrease) (platelet (PLT); SD rats ♀, 6 mg/kg single i.v., D2): ↓60% | Effect on PLT (↓ decrease) (platelet (PLT); SD rats ♀, 20 mg/kg single i.v., 4 h): ↓61% | Effect on PLT (↓ decrease) (platelet (PLT); SD rats ♀, 20 mg/kg single i.v., D2): ↓84% | Effect on PLT (↓ decrease) (platelet (PLT); SD rats ♀, 60 mg/kg single i.v., D8): ↓53% | Effect on PLT (↓ decrease) (platelet (PLT); SD rats ♂, 6 mg/kg single i.v., 4 h): ↓16% | Effect on PLT (↓ decrease) (platelet (PLT); SD rats ♂, 6 mg/kg single i.v., D2): ↓56% | Effect on PLT (↓ decrease) (platelet (PLT); SD rats ♂, 20 mg/kg single i.v., 4 h): ↓51% | Effect on PLT (↓ decrease) (platelet (PLT); SD rats ♂, 20 mg/kg single i.v., D2): ↓71% | Effect on PLT (↓ decrease) (platelet (PLT); SD rats ♂, 60 mg/kg single i.v., D8): ↓17% | platelet toxicity relative to the control compound (platelet (PLT); 6 mg/kg and 20 mg/kg single i.v., 4 h and D2): less platelet toxicity | platelet toxicity relative to the control compound (platelet (PLT); 60 mg/kg single i.v., D8): less platelet toxicity
